Source: ChEMBL document CHEMBL5506069, “A Unique Hybridization Route to Access Hydrazylnaphthalimidols as Novel Structural Scaffolds of Multitargeting Broad-Spectrum Antifungal Candidates” (J Med Chem, 2024)
In brackets after ≈: the same amount, converted by molar mass. Activity calls are given as the source filed them. The rule behind the calls is not given here.

Experiments:
Candida albicans [1] = assay: Antifungal activity against Candida albicans assessed as inhibition of fungal growth incubated for 24 hrs by CLSI based microbroth dilution method; type: functional
Aspergillus fumigatus [2] = assay: Potency index, ratio of fluconazole MIC to test compound MIC for antifungal activity against Aspergillus fumigatus assessed as inhibition of fungal growth incubated for 24 hrs by CLSI based microbroth dilution method; type: functional
Candida albicans [3] = assay: Antifungal activity against Candida albicans ATCC 90023 assessed as inhibition of fungal growth incubated for 24 hrs by CLSI based microbroth dilution method; type: functional
Candida parapsilosis = assay: Antifungal activity against Candida parapsilosis ATCC 22019 assessed as inhibition of fungal growth incubated for 24 hrs by CLSI based microbroth dilution method; type: functional; conditions: Lodderomyces parapsilosis
Candida tropicalis = assay: Antifungal activity against Candida tropicalis assessed as inhibition of fungal growth incubated for 24 hrs by CLSI based microbroth dilution method; type: functional
Aspergillus fumigatus [4] = assay: Antifungal activity against Aspergillus fumigatus assessed as inhibition of fungal growth incubated for 24 hrs by CLSI based microbroth dilution method; type: functional
Erythrocyte [5] = assay: Hemolytic activity in RBC (unknown origin) assessed as appearance of smooth surface at 128 times MIC measured for 6 hrs by microscopic analysis; type: toxicity, cell-based
Calf thymus DNA [6] = assay: Induction of DNA cleavage in calf thymus DNA assessed as change in DNA band formation at 0.05 to 0.5 mM by agarose gel electrophoresis analysis; type: nucleic-acid assay; conditions: Bos taurus; dose 0.05-0.5 mM
Erythrocyte [7] = assay: Hemolytic activity in RBC (unknown origin) assessed as appearance of round surface at 128 times MIC measured for 6 hrs by microscopic analysis; type: toxicity, cell-based
Albumin [8] = target: T1, Albumin (Homo sapiens, UniProt P02768); assay: Binding affinity to human serum albumin assessed as Stem-Volmer quenching constant at 286K at pH 7.4 by fluorescence based analysis
T1 sequence (P02768 whole entry): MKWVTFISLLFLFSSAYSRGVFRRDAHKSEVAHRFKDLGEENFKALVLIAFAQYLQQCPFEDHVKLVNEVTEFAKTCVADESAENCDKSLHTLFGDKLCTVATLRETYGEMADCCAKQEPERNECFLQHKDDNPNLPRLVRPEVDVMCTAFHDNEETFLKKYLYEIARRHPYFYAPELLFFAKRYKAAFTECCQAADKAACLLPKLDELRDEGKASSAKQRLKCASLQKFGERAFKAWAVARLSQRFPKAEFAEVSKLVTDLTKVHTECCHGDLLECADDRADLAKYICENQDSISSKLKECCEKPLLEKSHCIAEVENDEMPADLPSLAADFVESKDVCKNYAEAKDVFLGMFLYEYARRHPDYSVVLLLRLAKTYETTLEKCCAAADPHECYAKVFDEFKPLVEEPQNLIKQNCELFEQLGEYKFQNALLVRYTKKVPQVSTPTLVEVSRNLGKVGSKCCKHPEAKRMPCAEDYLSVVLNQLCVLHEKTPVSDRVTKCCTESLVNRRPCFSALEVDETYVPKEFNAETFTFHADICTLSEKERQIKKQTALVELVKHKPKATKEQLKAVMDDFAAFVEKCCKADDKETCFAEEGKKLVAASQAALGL

Candida albicans [9] = assay: […] in Candida albicans assessed as decrease in pink fluorescence by resazurin staining based analysis; type: functional, organism-based
Cell membrane [10] = assay: Induction of cell membrane damage in Candida albicans assessed as increase in red fluorescent intensity at 4 to 8 times MIC measured for 6 hrs by PI staining based spectrofluorimeter analysis
Calf thymus DNA [11] = assay: Induction of DNA cleavage in calf thymus DNA at 0.5 mM in presence of Zn2+ by agarose gel electrophoresis analysis; type: nucleic-acid assay; conditions: Bos taurus
[12] = Hemolytic activity in RBC (unknown origin) assessed as hemolysis rate 128 times MIC measured for 6 hrs by double dilution method; type: toxicity, cell-based, Erythrocyte; conditions: red blood cells (erythrocytes), read-out: Activity
Candida albicans [13] = assay: Antifungal activity against Candida albicans assessed as reduction in metabolic activity by measuring fluorescence intensity measured for 6 hrs by alamar blue staining based analysis; type: functional, organism-based
Calf thymus DNA [14] = assay: Induction of DNA cleavage in calf thymus DNA at 0.5 mM in presence of Cu2+ by agarose gel electrophoresis analysis; type: nucleic-acid assay; conditions: Bos taurus
Candida albicans [15] = assay: Induction of morphological changes in Candida albicans assessed as appearance of dented surface at 2 times MIC measured after 6 hrs by SEM analysis; type: functional, organism-based
Candida albicans [16] = assay: Induction of morphological changes in Candida albicans assessed as appearance of atrophied surface at 2 times MIC measured after 6 hrs by SEM analysis; type: functional, organism-based
Candida albicans [17] = assay: Antifungal activity against Candida albicans assessed as reduction in metabolic activity by measuring fluorescence intensity at 0.5 to 8 times MIC measured for 6 hrs by alamar blue staining based analysis; type: functional, organism-based
Candida albicans [18] = assay: Induction of intracellular ROS production in Candida albicans assessed as fold increase in fluorescence intensity at 1 times MIC incubated for 6 hrs by DCFH-DA staining based analysis; type: functional
Cell membrane [19] = assay: Induction of cell membrane damage in Candida albicans assessed as increase in fluorescent intensity at 0.5 to 8 times MIC measured for 6 hrs by PI staining based spectrofluorimeter analysis; type: subcellular
Candida albicans [20] = assay: Induction of morphological changes in Candida albicans assessed as appearance of oval shape by SEM analysis; type: functional, organism-based
Calf thymus DNA [21] = assay: Binding affinity to calf thymus DNA assessed as change in red shift by measuring hypochromism upto 7 mM by UV-Vis absorption spectra analysis; type: nucleic-acid assay; conditions: Bos taurus
Calf thymus DNA [22] = assay: Binding affinity to calf thymus DNA assessed as decrease in fluorescence intensity by acridine orange dye based by UV-Vis absorption spectra analysis; type: nucleic-acid assay; conditions: Bos taurus
Candida albicans [23] = assay: Induction of intracellular ROS production in Candida albicans assessed as increase in fluorescence intensity incubated for 6 hrs by DCFH-DA staining based analysis; type: functional, organism-based
Albumin [24] = target: T1, Albumin; assay: Binding affinity to human serum albumin assessed as Stem-Volmer quenching constant at 298K at pH 7.4 by fluorescence based analysis
Candida albicans [25] = assay: Antibiofilm activity against Candida albicans assessed as inhibition of biofilm formation at 0.5 to 8 microg/ml measured for 24 hrs by crystal violet staining based; type: functional; conditions: dose 0.5-8 µg/ml, at 0.5 to 8 µg/mL
Candida albicans [26] = assay: Antioxidant activity in Candida albicans assessed as decrease in GSH content at 2 times MIC measured at 30 mins by ellman method; type: functional; design: scale not given: the % may be the effect or the level left; conditions: 0.5 h
Albumin [27] = target: T1, Albumin; assay: Binding affinity to human serum albumin assessed as Stem-Volmer quenching constant at 310K at pH 7.4 by fluorescence based analysis
Candida albicans [28] = assay: Antifungal activity against Candida albicans measured after at 14 passages; type: functional, organism-based
Cell membrane [29] = assay: Induction of cytoplasmic membrane depolarization in Candida albicans assessed as increase in fluorescence intensity at 4 times MIC measured for 30 mins by DiSC3-5 dye based fluorescence method; type: cell membranes
L02 = assay: Cytotoxicity against human L02 cells assessed as effect on cell growth incubated for 24 to 48 hrs by MTT assay; type: toxicity, cell-based; conditions: time 24-48 hrs
Candida albicans [30] = assay: Antioxidant activity in Candida albicans assessed as decrease in GSH content measured at 5 mins by ellman method; type: functional; design: scale not given: the % may be the effect or the level left
Calf thymus DNA [31] = assay: Induction of DNA cleavage in calf thymus DNA at 0.05 to 0.5 mM in presence of Zn2+ by agarose gel electrophoresis analysis; type: nucleic-acid assay; conditions: Bos taurus; dose 0.05-0.5 mM
Candida albicans [32] = assay: Induction of morphological changes in Candida albicans assessed as appearance of regular continuous surface by SEM analysis; type: functional, organism-based
Candida albicans [33] = assay: Antifungal activity against Candida albicans assessed as reduction in LDH activity by measuring fluorescence intensity measured for 6 hrs by alamar blue staining based analysis; type: functional, organism-based
Candida albicans [34] = assay: Antifungal activity against Candida albicans at 4 times MIC measured within 10 hrs by time kill assay; type: functional, organism-based
Cell membrane [35] = assay: Induction of cell membrane potential loss in Candida albicans assessed as change in fluorescence intensity at 4 times MIC measured for 30 mins by DiSC3-5 dye based fluorescence method; type: subcellular
Candida albicans [36] = assay: Induction of intracellular ROS production in Candida albicans assessed as increase in green fluorescence intensity at 4 times MIC incubated for 6 hrs by fluorescence microscopic analysis; type: functional, organism-based
Calf thymus DNA [37] = assay: Binding affinity to calf thymus DNA assessed as binding constant by UV-Vis absorption spectra analysis; type: nucleic-acid assay; conditions: Bos taurus
Candida albicans [38] = assay: Antibiofilm activity against Candida albicans assessed as reduction in residual biomass measured for 24 hrs by crystal violet staining based; type: functional, organism-based; conditions: dose <= 8.0 µg/ml
Candida albicans [39] = assay: Induction of intracellular ROS production in Candida albicans assessed as fold increase in fluorescence intensity at 4 to 128 times MIC incubated for 6 hrs by DCFH-DA staining based analysis; type: functional, organism-based
Calf thymus DNA [40] = assay: Induction of DNA cleavage in calf thymus DNA at 0.05 to 0.5 mM in presence of Cu2+ by agarose gel electrophoresis analysis; type: nucleic-acid assay; conditions: Bos taurus; dose 0.05-0.5 mM
Candida albicans [41] = assay: Antifungal activity against Candida albicans assessed as reduction in LDH activity by measuring fluorescence intensity at 8 times MIC measured for 6 hrs by alamar blue staining based analysis; type: functional; design: scale not given: the % may be the effect or the level left
Candida albicans [42] = assay: Antioxidant activity in Candida albicans assessed as decrease in GSH content at 1 times MIC measured at 30 mins by ellman method; type: functional; design: scale not given: the % may be the effect or the level left; conditions: 0.5 h
Candida albicans [43] = assay: Potency index, ratio of fluconazole MIC to test compound MIC for antifungal activity against Candida albicans assessed as inhibition of fungal growth incubated for 24 hrs by CLSI based microbroth dilution method; type: functional
Candida albicans [44] = assay: Induction of morphological changes in Candida albicans assessed as deformation of cell shape at 2 times MIC measured after 6 hrs by SEM analysis; type: functional, organism-based
Calf thymus DNA [45] = assay: Binding affinity to calf thymus DNA assessed as DNA-compound complex formation by measuring hyperchromism upto 7 mM by UV-Vis absorption spectra analysis; type: nucleic-acid assay; conditions: Bos taurus

Molecule C[n+]1cccc(/C=N/Nc2ccc3c4c(cccc24)C(=O)N(CCO)C3=O)c1.[I-] has an MIC (Candida albicans [1]) of 32 µM, a Ratio (Aspergillus fumigatus [2]) of 52 and an MIC (Candida albicans [3]) of 16 µM. It also gave an MIC (Candida parapsilosis) of 127 µM, an MIC (Candida tropicalis) of 64 µM and an MIC (Aspergillus fumigatus [4]) of 8 µM.

For O=C1c2cccc3c(N/N=C/c4ccc([N+](=O)[O-])o4)ccc(c23)C(=O)N1CCO, the Activity (Erythrocyte [5]) was “Non-Toxic”, the Activity (Calf thymus DNA [6]) was “inactive” and the Activity (Erythrocyte [7]) was “Non-Toxic”. For the same molecule, the MIC (Candida albicans [1]) was 1 µM (≈ 0.394 µg/mL), the KSV (Albumin [8]) was 12.6 10^4L/mol and the Activity (Candida albicans [9]) was “Dose-Dependent Effect”. For the same molecule, the Activity (Cell membrane [10]) was “Active”, the Activity (Calf thymus DNA [11]) was “inactive” and the hemolysis at 6 h, 128 times MIC [12] was less than 5%. For the same molecule, the Activity (Candida albicans [13]) was “Dose-Dependent Effect”, the Activity (Calf thymus DNA [14]) was “inactive” and the Activity (Candida albicans [15]) was “Active”. For the same molecule, the Activity (Candida albicans [16]) was “Active”, the Activity (Candida albicans [17]) was “Active” and the “fold change (FC)” value (Candida albicans [18]) was 2.5. The Activity (Cell membrane [19]) was “Active”, the Activity (Candida albicans [20]) was “Active” and the Activity (Calf thymus DNA [21]) was “Active”. For the same molecule, the Activity (Calf thymus DNA [22]) was “Active”, the Activity (Candida albicans [23]) was “Dose-Dependent Effect” and the KSV (Albumin [24]) was 9.34 10^4L/mol. For the same molecule, the “inhibition (INH)” value (Candida albicans [25]) was 22%, the MIC (Candida albicans [3]) was 2 µM (≈ 0.789 µg/mL) and the Activity (Candida albicans [26]) was 40%. For the same molecule, the KSV (Albumin [27]) was 8.82 10^4L/mol, the Activity (Candida albicans [28]) was “Active” and the Activity (Cell membrane [29]) was “inactive”. For the same molecule, the Activity (L02) was “Non-Toxic”, the Activity (Candida albicans [30]) was 70% and the Activity (Calf thymus DNA [31]) was “inactive”. The Activity (Candida albicans [32]) was “Active”, the MIC (Candida parapsilosis) was 4 µM (≈ 1.58 µg/mL) and the Activity (Candida albicans [33]) was “Dose-Dependent Effect”. The Activity (Candida albicans [34]) was “Active”, the Activity (Cell membrane [35]) was “inactive” and the Activity (Candida albicans [36]) was “Active”. The MIC (Candida tropicalis) was 2 µM (≈ 0.789 µg/mL), the K (Calf thymus DNA [37]) was 2.4 10^4L/mol and the Activity (Candida albicans [38]) was “Dose-Dependent Effect”. For the same molecule, the Activity (Candida albicans [39]) was “Active”, the Activity (Calf thymus DNA [40]) was “inactive” and the Activity (Candida albicans [41]) was less than 55%. For the same molecule, the Activity (Candida albicans [42]) was 50%, the Ratio (Candida albicans [43]) was 13 and the MIC (Aspergillus fumigatus [4]) was 4 µM (≈ 1.58 µg/mL). The Activity (Candida albicans [44]) was “Active” and the Activity (Calf thymus DNA [45]) was “Active”.
